Source: ChEMBL document CHEMBL5584314, “Identification of an m6A Natural Inhibitor, Lobeline, That Reverses Lenvatinib Resistance in Hepatocellular Tumors” (J Nat Prod, 2024)
The source made the active and inactive calls. The rule behind the calls is not given here.

Legend:
[1] = system: Lenvatinib-resistant Huh7/Len; test: Antitumor activity against human Lenvatinib-resistant Huh7/Len cells xenografted in BALB/c nude mouse assessed as inhibition of tumor volume at 1.5 mg/kg, ip cotreated with lenvatinib 5 times per week for 3 weeks relative to control; assay type: functional; details: 504 h
[2] = target: N6-adenosine-methyltransferase catalytic subunit (Homo sapiens) (UniProt Q86U44); test: Inhibition of METTL3 in human Lenvatinib-resistant Huh7/Len cells assessed as effect on ADAMTS9 mRNA expression level at 2 uM incubated for 72 hrs by RT-PCR analysis; assay type: cell-based
[3] = target: N6-adenosine-methyltransferase catalytic subunit (Homo sapiens) (UniProt Q86U44); test: Inhibition of METTL3 in human Lenvatinib-resistant Huh7/Len cells assessed as effect on MYC mRNA expression level at 2 uM incubated for 72 hrs by RT-PCR analysis; assay type: cell-based
[4] = target: N6-adenosine-methyltransferase catalytic subunit (Homo sapiens) (UniProt Q86U44); test: Inhibition of METTL3 in human Lenvatinib-resistant Huh7/Len cells assessed as effect on MMP3 mRNA expression level at 2 uM incubated for 72 hrs by RT-PCR analysis; assay type: cell-based
[5] = system: Lenvatinib-resistant Hep3B/Len; test: Antiproliferative activity against human Lenvatinib-resistant Hep3B/Len cells assessed as inhibition of cell viability at 5 uM after 72 hrs in presence of lenvatinib by CCK-8 assay; assay type: functional, cell-based
[6] = target: N6-adenosine-methyltransferase catalytic subunit (Homo sapiens) (UniProt Q86U44); test: Inhibition of METTL3 in human Huh-7 cells assessed as down regulation of m6A RNA level incubated for 72 hrs by Dot blot assay; assay type: cell-based; details: dose 5-10 µM
[7] = system: Lenvatinib-resistant Huh7/Len; test: Anticancer activity against human Lenvatinib-resistant Huh7/Len cells assessed as reduction in UBE3B protein expression at 2 uM by Western blot analysis; assay type: functional, cell-based
[8] = system: Lenvatinib-resistant Huh7/Len; test: Antitumor activity against human Lenvatinib-resistant Huh7/Len cells xenografted in BALB/c nude mouse assessed as reduction in m6A level in tumor tissue at 1.5 mg/kg, ip 5 times per week for 3 weeks by immunohistochemistry analysis; assay type: functional, organism-based
[9] = system: Lenvatinib-resistant Huh7/Len; test: Inhibition of cell migration in human Lenvatinib-resistant Huh7/Len cells at 5 uM incubated for 48 hrs in presence of lenvatinib by transwell assay relative to control; assay type: functional
[10] = system: Lenvatinib-resistant Huh7/Len; test: Anticancer activity against human Lenvatinib-resistant Huh7/Len cells assessed as increase in m6A modification in promoter region by MeRIP-m6A -sequencing analysis; assay type: functional, cell-based
[11] = system: Lenvatinib-resistant Huh7/Len; test: Induction of apoptosis in human Lenvatinib-resistant Huh7/Len cells xenografted in BALB/c nude mouse assessed as apoptotic cells in tumor tissue at 1.5 mg/kg, ip cotreated with lenvatinib 5 times per week for 3 weeks by TUNEL assay; assay type: functional, organism-based
[12] = target: N6-adenosine-methyltransferase catalytic subunit (Homo sapiens) (UniProt Q86U44); test: Inhibition of METTL3 in human Lenvatinib-resistant Huh7/Len cells assessed as effect on TET1 mRNA expression level at 2 uM incubated for 72 hrs by RT-PCR analysis; assay type: cell-based
[13] = target: N6-adenosine-methyltransferase catalytic subunit (Homo sapiens) (UniProt Q86U44); test: Inhibition of METTL3 in human Lenvatinib-resistant Huh7/Len cells assessed as effect on NPCL1 mRNA expression level at 2 uM incubated for 72 hrs by RT-PCR analysis; assay type: cell-based
[14] = system: Lenvatinib-resistant Huh7/Len; test: Antitumor activity against human Lenvatinib-resistant Huh7/Len cells xenografted in BALB/c nude mouse assessed as tumor growth inhibition at 1.5 mg/kg, ip cotreated with lenvatinib 5 times per week for 3 weeks; assay type: functional, organism-based
[15] = system: Lenvatinib-resistant HCC/Len; test: Antitumor activity against human Lenvatinib-resistant HCC/Len cells xenografted in BALB/c nude mouse model of PDX assessed as reduction in METTL3 protein expression at 1.5 mg/kg, ip 5 times per week for 3 weeks by Western blot assay; assay type: functional, organism-based
[16] = target: N6-adenosine-methyltransferase catalytic subunit (Homo sapiens) (UniProt Q86U44); test: Inhibition of METTL3 in human Lenvatinib-resistant Huh7/Len cells assessed as effect on FGFR3 mRNA expression level at 2 uM incubated for 72 hrs by RT-PCR analysis; assay type: cell-based
Huh-7 = test: Effect on METTL3 protein expression in human Huh-7 cells at 2 uM incubated for 72 hrs by Western blot analysis; assay type: functional, cell-based
[17] = target: N6-adenosine-methyltransferase catalytic subunit (Homo sapiens) (UniProt Q86U44); test: Inhibition of METTL3 in human Lenvatinib-resistant Huh7/Len cells assessed as effect on DEK mRNA expression level at 2 uM incubated for 72 hrs by RT-PCR analysis; assay type: cell-based
[18] = system: Lenvatinib-resistant Huh7/Len; test: Antitumor activity against human Lenvatinib-resistant Huh7/Len cells xenografted in BALB/c nude mouse assessed as reduction in m6A RNA level at 1.5 mg/kg, ip 5 times per week for 3 weeks by Dot blot assay; assay type: functional, organism-based
[19] = target: N6-adenosine-methyltransferase catalytic subunit (Homo sapiens) (UniProt Q86U44); test: Inhibition of METTL3 in human Lenvatinib-resistant Huh7/Len cells assessed as effect on EZH2 mRNA expression level at 2 uM incubated for 72 hrs by RT-PCR analysis; assay type: cell-based
[20] = Toxicity in BALB/c nude mouse PDX model xenografted with human Lenvatinib-resistant HCC/Len cells assessed as changes in body weight at 1.5 mg/kg, ip cotreated with lenvatinib 5 times per week for 3 weeks; assay type: organism-based; details: in vivo, 504 h
[21] = target: N6-adenosine-methyltransferase catalytic subunit (Homo sapiens) (UniProt Q86U44); test: Inhibition of METTL3 in human Lenvatinib-resistant Huh7/Len cells assessed as effect on LATS1 mRNA expression level at 2 uM incubated for 72 hrs by RT-PCR analysis; assay type: cell-based
[22] = target: N6-adenosine-methyltransferase catalytic subunit (Homo sapiens) (UniProt Q86U44); test: Inhibition of METTL3 in human Huh-7 cells assessed as down regulation of m6A RNA level at 2 uM incubated for 72 hrs by colorimetric analysis; assay type: cell-based
[23] = target: N6-adenosine-methyltransferase catalytic subunit (Homo sapiens) (UniProt Q86U44); test: Inhibition of METTL3 in human Lenvatinib-resistant Huh7/Len cells assessed as effect on HNF4A mRNA expression level at 2 uM incubated for 72 hrs by RT-PCR analysis; assay type: cell-based
[24] = system: Lenvatinib-resistant Huh7/Len; test: Antitumor activity against human Lenvatinib-resistant Huh7/Len cells xenografted in BALB/c nude mouse assessed as reduction in Ki-67 protein expression in tumor tissue at 1.5 mg/kg, ip cotreated with lenvatinib 5 times per week for 3 weeks by immunohistochemistry analysis relative to control; assay type: functional; design: scale not given: the % may be the effect or the level left
[25] = system: Lenvatinib-resistant Hep3B/Len; test: Inhibition of cell migration in human Lenvatinib-resistant Hep3B/Len cells at 5 uM incubated for 48 hrs by transwell assay; assay type: functional, cell-based
[26] = Toxicity in BALB/c nude mouse PDX model xenografted with human Lenvatinib-resistant HCC/Len cells assessed as changes in organ index at 1.5 mg/kg, ip administered 5 times per week for 3 weeks; assay type: organism-based; details: in vivo, 504 h
[27] = system: Lenvatinib-resistant Huh7/Len; test: Anticancer activity against human Lenvatinib-resistant Huh7/Len cells assessed as reduction in UBE3B mRNA expression at 2 uM by qPCR analysis; assay type: functional, cell-based
[28] = target: N6-adenosine-methyltransferase catalytic subunit (Homo sapiens) (UniProt Q86U44); test: Inhibition of METTL3 in human Lenvatinib-resistant Huh7/Len cells assessed as effect on TIBIM6 mRNA expression level at 2 uM incubated for 72 hrs by RT-PCR analysis; assay type: cell-based
[29] = target: N6-adenosine-methyltransferase catalytic subunit (Homo sapiens) (UniProt Q86U44); test: Inhibition of METTL3 in human Lenvatinib-resistant Huh7/Len cells assessed as effect on MMP13 mRNA expression level at 2 uM incubated for 72 hrs by RT-PCR analysis; assay type: cell-based
[30] = system: Lenvatinib-resistant Huh7/Len; test: Antiproliferative activity against human Lenvatinib-resistant Huh7/Len cells assessed as inhibition of clone formation ability at 5 uM preincubated for 72 hrs and measured after 7 to 10 days in presence of lenvatinib by crystal violet staining based assay; assay type: functional, cell-based; details: time 10-13 day
[31] = system: Lenvatinib-resistant Huh7/Len; test: Antiproliferative activity against human Lenvatinib-resistant Huh7/Len cells assessed as inhibition of cell viability up to 40 uM after 72 hrs by CCK-8 assay; assay type: functional, cell-based

Sequence of N6-adenosine-methyltransferase catalytic subunit (Homo sapiens) (Q86U44 whole entry): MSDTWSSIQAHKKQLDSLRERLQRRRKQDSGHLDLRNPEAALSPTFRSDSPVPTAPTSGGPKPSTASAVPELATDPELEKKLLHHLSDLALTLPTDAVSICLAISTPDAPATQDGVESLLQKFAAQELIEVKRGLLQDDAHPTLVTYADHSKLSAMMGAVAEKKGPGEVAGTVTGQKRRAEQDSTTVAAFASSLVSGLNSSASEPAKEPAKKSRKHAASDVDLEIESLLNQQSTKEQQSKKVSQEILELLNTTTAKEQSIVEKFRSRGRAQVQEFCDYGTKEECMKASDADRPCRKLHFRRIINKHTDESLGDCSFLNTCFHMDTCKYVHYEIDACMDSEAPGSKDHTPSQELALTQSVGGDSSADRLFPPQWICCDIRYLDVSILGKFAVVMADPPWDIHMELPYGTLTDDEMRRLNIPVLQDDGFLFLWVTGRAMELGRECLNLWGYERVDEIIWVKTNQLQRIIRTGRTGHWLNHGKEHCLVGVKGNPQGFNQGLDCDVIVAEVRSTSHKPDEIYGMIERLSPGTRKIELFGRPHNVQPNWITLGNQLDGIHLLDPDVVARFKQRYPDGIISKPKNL

**Q.** Which results are given for `CN1[C@@H](CC(=O)c2ccccc2)CCC[C@H]1C[C@H](O)c1ccccc1` [LOBELINE]?
**A.** inhibition in vivo at 1.5 mg/kg [1]: 68%; inhibition [2]: Active; inhibition [3]: Active; inhibition [4]: Active; inhibition [5]: Active; inhibition [6]: Dose-Dependent Effect; Activity [7]: Active; Activity [8]: Active; inhibition at 5 µM [9]: 42%; Activity [10]: Active; Activity [11]: Active; inhibition [12]: Active; inhibition [13]: Active; TGI [14]: Active; Activity [15]: inactive; inhibition [16]: Active; Activity (Huh-7): inactive; inhibition [17]: Active; Activity [18]: inactive; inhibition [19]: Active; Activity [20]: Non-Toxic; inhibition [21]: Active; inhibition [22]: 11%; inhibition [23]: Active; Activity [24]: 30%; inhibition [25]: inactive; Activity [26]: Non-Toxic; Activity [27]: Active; inhibition [28]: Active; inhibition [29]: Active; inhibition [30]: inactive; inhibition [31]: Active
